Ki, viability and IC50 data for 35 compounds are collected here from ChEMBL document CHEMBL3085661, “Fragment-based approach to the design of 5-chlorouracil-linked-pyrazolo[1,5-a][1,3,5]triazines as thymidine phosphorylase inhibitors” (Eur J Med Chem, 2013).

Structures can show the parent of a compound that is named as a salt. Where only a bound is given, the exact number is not on record here.

As a reminder, the Ki is a measure of affinity in units of concentration, obtained from inhibition or displacement. As usually defined, the IC50 is the concentration that inhibits the measured activity by half.

T1 sequence (P07650 whole entry): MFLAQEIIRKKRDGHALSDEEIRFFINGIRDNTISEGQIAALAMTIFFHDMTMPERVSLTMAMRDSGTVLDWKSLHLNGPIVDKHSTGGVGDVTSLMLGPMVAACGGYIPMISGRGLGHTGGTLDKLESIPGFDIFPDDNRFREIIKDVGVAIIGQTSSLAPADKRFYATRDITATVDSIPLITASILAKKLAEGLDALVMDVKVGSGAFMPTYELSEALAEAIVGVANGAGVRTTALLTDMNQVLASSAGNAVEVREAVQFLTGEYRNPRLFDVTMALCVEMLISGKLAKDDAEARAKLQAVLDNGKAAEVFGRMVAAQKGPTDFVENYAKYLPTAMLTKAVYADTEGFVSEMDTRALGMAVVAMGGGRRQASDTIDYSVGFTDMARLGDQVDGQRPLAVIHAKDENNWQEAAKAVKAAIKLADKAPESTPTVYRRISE

One data set concerns the target T1, Thymidine phosphorylase (Escherichia coli K-12, UniProt P07650). As to the kind of experiment: Mixed-type inhibition of Escherichia coli recombinant thymidine phosphorylase using thymidine as substrate by Lineweaver-Burk plot analysis.
Settings: not given
Take `O=c1[nH]c(CSc2nc3c(-c4ccc(S(F)(F)(F)(F)F)cc4)cnn3c(=O)[nH]2)c(Cl)c(=O)[nH]1`: the Ki stood at 0.44 µM.

System in a further data set: not listed separately
The experiment in a line: Cytotoxicity against human MDA-MB-231 cells assessed as cell viability at 100 uM by MTT assay relative to control. The class given is cell-based. To be noted: read-out: Activity. On the technique in general: Formazan colour is commonly taken as a measure of viable cells.
Turning to `O=c1[nH]c(CSc2nc3c(-c4ccc(S(F)(F)(F)(F)F)cc4)cnn3c(=O)[nH]2)c(Cl)c(=O)[nH]1`, the viability at 100 µM stood at 67%.

Another data set has as its target T1, Thymidine phosphorylase. As to the kind of experiment: Inhibition of Escherichia coli recombinant thymidine phosphorylase using thymidine as substrate after 4 to 20 mins by UV spectrophotometry.
Settings: not given
As to `N#Cc1cnn2c(=O)[nH]c(SCc3[nH]c(=O)[nH]c(=O)c3Cl)nc12`, the IC50 was determined as 38.8 µM. For the compound `Cc1ccc(-c2cnn3c(=O)[nH]c(SCc4[nH]c(=O)[nH]c(=O)c4Cl)nc23)cc1`, the IC50 was 7.3 µM. The same measure, in the same setting: in the case of `CCOC(=O)c1cnn2c(=O)[nH]c(=S)[nH]c12` it was over 100 µM.

As to `O=c1[nH]c(CSc2nc3cc(-c4ccc(C(F)(F)F)cc4)nn3c(=O)[nH]2)c(Cl)c(=O)[nH]1`, the IC50 came to 2.1 µM. Still for that read-out and setting: next, `Cc1cc2nc(SCc3[nH]c(=O)[nH]c(=O)c3Cl)[nH]c(=O)n2n1`: 55.5 µM. Turning to `O=c1[nH]c(CSc2nc3c(-c4ccc(S(F)(F)(F)(F)F)cc4)cnn3c(=O)[nH]2)c(Cl)c(=O)[nH]1`, the IC50 came out at 0.36 µM. Take `O=c1[nH]c(CSc2nc3cc(-c4ccc(Cl)cc4)nn3c(=O)[nH]2)c(Cl)c(=O)[nH]1`: the IC50 stood at 10.3 µM.

Consider `O=c1[nH]c(CSc2nc3ccnn3c(=O)[nH]2)c(Cl)c(=O)[nH]1`, for which the IC50 stood at 67.8 µM. The same measure, in the same setting: next, `N#Cc1cnn2c(=O)[nH]c(=S)[nH]c12`: over 100 µM. Same read-out and setting: next, `CC(C)(C)c1ccc(-c2cnn3c(=O)[nH]c(SCc4[nH]c(=O)[nH]c(=O)c4Cl)nc23)cc1`: 1.8 µM; `Cc1cnn2c(=O)[nH]c(SCc3[nH]c(=O)[nH]c(=O)c3Cl)nc12`: 35.3 µM; `COc1ccc(-c2cc3nc(SCc4[nH]c(=O)[nH]c(=O)c4Cl)[nH]c(=O)n3n2)cc1`: 11.8 µM. Same read-out and setting: next, `Cc1ccc(-c2cc3nc(SCc4[nH]c(=O)[nH]c(=O)c4Cl)[nH]c(=O)n3n2)cc1`: 9.8 µM.

Consider `O=c1[nH]c(CSc2nc3cc(-c4ccc(F)cc4)nn3c(=O)[nH]2)c(Cl)c(=O)[nH]1`, for which the IC50 turned out to be 22.6 µM.

In the case of `O=c1[nH]c(CSc2nc3cc(-c4ccccc4)nn3c(=O)[nH]2)c(Cl)c(=O)[nH]1`, the IC50 was 13 µM. Turning to `O=c1[nH]c(CSc2nc3c(-c4ccc(Br)cc4)cnn3c(=O)[nH]2)c(Cl)c(=O)[nH]1`, the IC50 was 1.2 µM. Take `O=c1[nH]c(CSc2nc3c(I)cnn3c(=O)[nH]2)c(Cl)c(=O)[nH]1`: the IC50 came out at 30.8 µM.

As for `CCOC(=O)c1cnn2c(=O)[nH]c(SCc3[nH]c(=O)[nH]c(=O)c3Cl)nc12`, the half-maximal inhibitory concentration (IC50) is 47.2 µM. The same measure, in the same setting: next, `O=c1[nH]c(CSc2nc3c(Cl)cnn3c(=O)[nH]2)c(Cl)c(=O)[nH]1`: 49.8 µM; `COc1ccc(-c2cnn3c(=O)[nH]c(SCc4[nH]c(=O)[nH]c(=O)c4Cl)nc23)cc1`: 21.3 µM.

`CCOc1ccc(-c2cnn3c(=O)[nH]c(SCc4[nH]c(=O)[nH]c(=O)c4Cl)nc23)cc1`: the IC50 stood at 12 µM. On the same count and under the same terms, next, `O=c1[nH]c(CSc2nc3cc(C(F)(F)F)nn3c(=O)[nH]2)c(Cl)c(=O)[nH]1`: 31 µM; `N=C1CCCN1Cc1[nH]c(=O)[nH]c(=O)c1Cl` [TIPIRACIL HYDROCHLORIDE]: 0.0027 µM; `CC(C)(C)c1ccc(-c2cc3nc(SCc4[nH]c(=O)[nH]c(=O)c4Cl)[nH]c(=O)n3n2)cc1`: 1.5 µM. Still for that read-out and setting: next, `O=c1[nH]c(CSc2nc3c(-c4ccc(I)cc4)cnn3c(=O)[nH]2)c(Cl)c(=O)[nH]1`: 0.61 µM. The same measure, in the same setting: in the case of `O=c1[nH]c(CSc2nc3c(-c4ccc(C(F)(F)F)cc4)cnn3c(=O)[nH]2)c(Cl)c(=O)[nH]1` it was 1.3 µM. `O=c1[nH]c(CSc2nc3c(-c4ccc(F)cc4)cnn3c(=O)[nH]2)c(Cl)c(=O)[nH]1`: the IC50 was found to be 8 µM.

As for `O=c1[nH]c(CSc2nc3c(Br)cnn3c(=O)[nH]2)c(Cl)c(=O)[nH]1`, the IC50 amounted to 40 µM.

As to `O=c1[nH]c(CSc2nc3c(-c4ccccc4)cnn3c(=O)[nH]2)c(Cl)c(=O)[nH]1`, the IC50 stood at 9.7 µM. Consider `O=c1[nH]c(CSc2nc3c(-c4ccc(Cl)cc4)cnn3c(=O)[nH]2)c(Cl)c(=O)[nH]1`, for which the IC50 turned out to be 2.8 µM.

Take `O=c1[nH]c(CSc2nc3cc(-c4ccc(Br)cc4)nn3c(=O)[nH]2)c(Cl)c(=O)[nH]1`: the half-inhibitory concentration (IC50) is 6.2 µM.

On to `CC(C)(C)c1cc2nc(SCc3[nH]c(=O)[nH]c(=O)c3Cl)[nH]c(=O)n2n1`, for which the IC50 was 51.2 µM. Turning to `CCOc1ccc(-c2cc3nc(SCc4[nH]c(=O)[nH]c(=O)c4Cl)[nH]c(=O)n3n2)cc1`, the IC50 is 10 µM. The same measure, in the same setting: in the case of `CCOc1ccc(-c2cc3[nH]c(=S)[nH]c(=O)n3n2)cc1` it was 6.1 µM.

The next data set concerns the target T1, Thymidine phosphorylase. The experiment in a line: Noncompetitive inhibition of GST-tagged Escherichia coli recombinant thymidine phosphorylase expressed in Escherichia coli using thymidine as substrate after 20 to 60 mins by HPLC analysis.
Settings: not given
As to `Oc1ncnc2c1ncn2[C@@H]1O[C@H](COC(c2ccccc2)(c2ccccc2)c2ccccc2)[C@@H](O)[C@H]1O`, the IC50 stood at 44 µM.
